Results: publication PMC9154793, “Design, synthesis, and biological evaluation of triazole-pyrimidine-methylbenzonitrile derivatives as dual A2A/A2B adenosine receptor antagonists” (Journal of Enzyme Inhibition and Medicinal Chemistry, 2022)
Where two headings read alike, the source gives them in different places. Values belong to the molecule of their own block, whether it stands above or below them.

How the values were obtained:
human A2A AR [1] = molecular target: T1, human A2A AR (Homo sapiens, UniProt P29274); experiment: cAMP functional assay in CHO-K1/ADORA2A/Gα15 cells (NECA-stimulated, HTRF); format: cell-based;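 also: inhibition of NECA-driven intracellular cAMP build-up in the A2A-expressing cells, quantified with cAMP-d2 plus Eu3+-labelled anti-cAMP detection reagent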
T1 sequence (P29274 whole entry): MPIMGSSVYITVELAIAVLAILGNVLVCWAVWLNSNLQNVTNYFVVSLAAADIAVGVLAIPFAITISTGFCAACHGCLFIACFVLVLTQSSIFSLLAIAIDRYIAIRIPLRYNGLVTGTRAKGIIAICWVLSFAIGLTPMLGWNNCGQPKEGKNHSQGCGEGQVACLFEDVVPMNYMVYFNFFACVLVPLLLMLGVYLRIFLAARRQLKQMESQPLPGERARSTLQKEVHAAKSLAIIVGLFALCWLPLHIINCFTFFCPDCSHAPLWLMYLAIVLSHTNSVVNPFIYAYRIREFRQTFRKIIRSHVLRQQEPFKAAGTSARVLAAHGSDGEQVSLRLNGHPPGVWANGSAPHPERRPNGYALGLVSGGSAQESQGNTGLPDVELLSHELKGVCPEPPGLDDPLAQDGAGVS
Experimental: (§16) In the cAMP assay, CHO-K1/ADORA2A/Gα15 cells expressing human A2A AR and CHO-K1/ADORA2b/Gα15 cells expressing human A2B AR were activated by 5′-(N-ethylcarboxamido)adenosine (NECA) and triggered the accumulation of intracellular cAMP concentration.
(§17) CHO-K1/ADORA2A/Gα15 cells expressing human A2A AR and CHO-K1/ADORA2b/Gα15 cells expressing human A2B AR were both constructed by Genscript Biotech Corporation. […] The test stock solutions were diluted with different gradients for use. The procedure was exemplified by the cAMP functional assay on the A2A receptor: 10,000 cells/well of CHO-K1/ADORA2A/Gα15 were seeded in a 384-well plate in 20 μl of assay buffer. […] Then, 10 μl of detection reagent (cAMP-d2 and anti-cAMP-Eu3+) was added into each well of the plate and incubated at room temperature for 1 h.

human A2B AR = molecular target: T2, human A2B AR (Homo sapiens, UniProt P29275); experiment: cAMP functional assay in CHO-K1/ADORA2b/Gα15 cells (NECA-stimulated, HTRF); format: cell-based
T2 sequence (P29275 1-332): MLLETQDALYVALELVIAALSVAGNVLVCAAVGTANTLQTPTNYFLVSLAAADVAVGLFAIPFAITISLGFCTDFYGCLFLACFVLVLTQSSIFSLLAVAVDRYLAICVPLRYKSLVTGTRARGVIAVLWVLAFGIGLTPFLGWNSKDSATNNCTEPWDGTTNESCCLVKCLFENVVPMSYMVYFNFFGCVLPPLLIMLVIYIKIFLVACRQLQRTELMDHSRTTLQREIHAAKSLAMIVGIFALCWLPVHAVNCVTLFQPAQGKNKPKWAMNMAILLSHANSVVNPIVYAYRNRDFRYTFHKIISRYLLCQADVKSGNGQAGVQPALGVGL
Experimental: as §16, §17

human A2A AR [2] = molecular target: T1, human A2A AR; experiment: A2A AR radioligand binding assay ([3H]-ZM241385, HEK-293 cell membranes)
Experimental: We further tested the IC50 values of compounds 7f, 7i, 17, 22, and AB928 in inhibiting the cAMP production of CHO cells expressing hA2A AR or hA2B AR (Table 2). […] In addition, the competitive binding experiments of compounds 7f, 7i, and AB928 were performed using membrane preparation of HEK-293 cells expressing human A2A AR (Table 3).
The target compounds were tested to evaluate their affinity for the A2A AR on HEK-293 cell membranes expressing human A2A AR. [^3H]-ZM241385 was used as a radioligand. The assay buffer (50 mM Tris-HCl, pH 7.4; 10 mM MgCl2; 1 mM EDTA; 1 μg/ml adenosine deaminase), wash buffer (50 mM Tris-HCl, pH 7.4; 154 mM NaCl), and 0.5% PEI solution were prepared and stored at 4 °C for use. The affinities were tested following the procedure reported by Hu et al[4].

[3] = Metabolic stability in human liver microsomes; format: in vitro ADME; conditions: human, microsomes
Experimental: (§1) The metabolic stability is an important focus for further compound optimisation. Compounds 7f, 7i, and AB928 were chosen to evaluate the stability in rat liver microsomes and human liver microsomes. For the microsomal metabolic experiment, 7-ethoxycoumarin (7-EC) was used as a control. As shown in Table 4 (see Supporting information for raw data), the CLint(liver) of 7-EC in rats and humans was 10.0 and 9.0 ml/min/g liver, respectively, indicating the experimental test system was reliable.
(§2) Metabolic stabilities of compounds 7f, 7i, and AB928 in liver microsomes were studied with pooled human (male) liver microsomes solution (20 mg/ml) and male Sprague–Dawley rats pooled liver microsomes solution (20 mg/ml) purchased from Research Institute for Liver Diseases (Shanghai) Co. Ltd. Both liver microsomes solutions (140 μl) were diluted by 3948 μl of water and 280 μl of phosphate buffered saline. The assay procedure: 640 μl of diluted liver microsomes solution was added to a solution of compound working solution (16 μl, 25 μM in DMSO) and the mixed solution was incubated at 37 °C for 5 min. Then 160 μl of NADPH generating system was added and take out 100 μl from the mixed solution was added 200 μl of acetonitrile solution to stop the reaction at the set incubation time (0 min, 10 min, 20 min, 30 min, 40 min, 50 min, and 60 min). All stopped reaction solutions were vortex mixed (3 min) and centrifuged (10,000 rpm, 4 °C for 10 min). Then 50 μl of the supernatant was analysed by UPLC-MS/MS system (details of the analytical method see Supporting information). […]
(§3) 8. Metabolic stability in human and rat liver microsomes
(§4) Metabolic stabilities of compounds 7f, 7i and AB928 in liver microsomes were studied with pooled human (male) liver microsomes solution (20 mg/mL) and male Sprague - Dawley rats pooled liver microsomes solution (20 mg/mL) purchased from Research Institute for Liver Diseases (Shanghai) Co. Ltd. Both liver microsomes solutions (140 μL) were diluted by 3948 μL of water and 280 μL of phosphate buffered saline. The assay procedure: 640 μL of diluted liver microsomes solution was added to a solution of compound working solution (16 μL, 25 μM in DMSO) and the mixed solution was […]
(§5) (1 picture or pasted object on this page, not shown here) […]
(§6) incubated at 37 ℃ for 5 min. Then 160 μL of NADPH generating system was added and take out 100 μL from the mixed solution was added 200 μL of acetonitrile solution to stop the reaction at the set incubation time (0 min, 10 min, 20 min, 30 min, 40 min, 50 min, and 60 min). All stopped reaction solutions were vortex mixed (3 min) and centrifuged (10000 rpm, 4 ℃ for 10 min). Then 50 μL of the supernatant was analyzed […]
(§7) 8.2 Chromatography and mass spectrometry conditions
(§8) UPLC was performed using an […] UPLC system (Waters, Milford, MA, […]
(§9) USA). Separation was achieved on a Waters BEH C18 column(100 mm × 2.1 mm， 1.7 μm) at 40 ℃. The injection volume of the sample solution was 5 μL. The mobile phase consisted of water (0.1% formic acid and ammonium acetate) and acetonitrile solution (20:80, v/v) at a flow rate of 0.4 mL/min within a running time of 6 min. Mass spectrometric analysis was performed on a Waters Xevo TQ-S triple quadrupole instrument using electrospray ionization in positive mode. Quantification was performed using multiple reaction monitoring (MRM) mode to monitor precursor-product ion transitions (Table S1).
(§10) Table S1. Conditions of MRM Detection. […]
(§11) Table S2. Raw data of metabolic stability in human and rat liver microsomes. […]
(§12) (min) Hum Rat Hum Rat Hum Rat Hum Rat
(§13) 9. Analytical method of pharmacokinetics assay
(§14) Animal experiments were performed according to the institutional ethical guidelines on animal care and approved by the Institute Animal Care and Use Committee at Binzhou […]
(§15) Female Bal b/c mice (sourced from Jinan Pengyue Experimental Animal Breeding […]

[4] = Metabolic stability in rat liver microsomes; format: in vitro ADME, Sprague–Dawley rats
Experimental: as §1, §2, §3, §4, §5, §6, §7, §8, §9, §10, §11, §12, §13, §14, §15

[5] = CHO-K1, compound at 10 nM, relative to ZM241385 at 1 μM, mean ± SEM, read-out: hA2A AR (%) inhibition of cAMP, 10 nM
[6] = CHO-K1, compound at 100 nM, relative to ZM241385 at 1 μM, mean ± SEM, read-out: hA2A AR (%) inhibition of cAMP, 100 nM
[7] = CHO-K1, compound at 1000 nM, relative to ZM241385 at 1 μM, mean ± SEM, read-out: hA2A AR (%) inhibition of cAMP, 1000 nM
[8] = CHO-K1, compound at 100 nM, relative to ZM241385 at 1 μM, mean ± SEM, read-out: hA2B AR (%) inhibition of cAMP, 100 nM

IC50 (human A2A AR [1]): 2.75 ± 0.12 nM | inhibition at 0.01 µM (human A2A AR [1]; CHO-K1, read-out: hA2A AR (%) inhibition of cAMP, 10 nM): 20 ± 6.46% | inhibition at 0.1 µM (human A2A AR [1]; CHO-K1, read-out: hA2A AR (%) inhibition of cAMP, 100 nM): 96.8 ± 7.16% | inhibition at 1 µM (human A2A AR [1]; CHO-K1, read-out: hA2A AR (%) inhibition of cAMP, 1000 nM): 101 ± 5.55% | IC50 (human A2B AR): 25.5 ± 0.35 nM | inhibition at 0.1 µM (human A2B AR; CHO-K1, read-out: hA2B AR (%) inhibition of cAMP, 100 nM): 103 ± 1.04% | IC50 (human A2A AR [2]): 25.2 ± 0.74 nM | CLint(liver) Hum [3]: 0.17 mL/min/g | half-life at 0.49 µM ([3]; male): 7.22 h | remaining at 10 min, 0.49 µM ([3]; male): 96.2% | remaining at 20 min, 0.49 µM ([3]; male): 104% | remaining at 0.5 h, 0.49 µM ([3]; male): 97% | remaining at 40 min, 0.49 µM ([3]; male): 91.8% | remaining at 50 min, 0.49 µM ([3]; male): 89% | remaining at 1 h, 0.49 µM ([3]; male): 94.4% | remaining at 10 min, 0.49 µM ([4]; male, Sprague-Dawley, pooled rat liver microsomes, rat liver microsomes, 10 min): 74.7% | remaining at 20 min, 0.49 µM ([4]; male, Sprague-Dawley, pooled rat liver microsomes, rat liver microsomes, 20 min): 67.4% | remaining at 0.5 h, 0.49 µM ([4]; male, Sprague-Dawley, pooled rat liver microsomes, rat liver microsomes, 30 min): 53.1% | remaining at 40 min, 0.49 µM ([4]; male, Sprague-Dawley, pooled rat liver microsomes, rat liver microsomes, 40 min): 42.8% | remaining at 50 min, 0.49 µM ([4]; male, Sprague-Dawley, pooled rat liver microsomes, rat liver microsomes, 50 min): 35.6% | remaining at 1 h, 0.49 µM ([4]; male, Sprague-Dawley, pooled rat liver microsomes, rat liver microsomes, 60 min, read-out: Remaining (%, T = 60min) Rat): 28.1% | half-life at 0.49 µM ([4]; male, Sprague-Dawley, rat, pooled rat liver microsomes, read-out: T1/2 Rat): 0.563 h | CLint(liver) Rat ([4]; rat liver microsomes): 2.15 mL/min/g
SMILES: Cc1c(C#N)cccc1-c1cc(-c2cn(Cc3cccc(C(C)(C)O)n3)nn2)nc(N)n1 [AB928, reference compound]

inhibition at 0.01 µM (human A2A AR [1]; [5]): 45 ± 1.25% | inhibition at 0.1 µM (human A2A AR [1]; [6]): 50.7 ± 5.51% | inhibition at 1 µM (human A2A AR [1]; [7]): 67.8 ± 4.91% | inhibition at 0.1 µM (human A2B AR; [8]): 82.5 ± 7.81% | melting point: 128 to 129 °C
SMILES: Cc1c(C#N)cccc1-c1cc(-c2cn(Cc3cccc(C(=O)OC(C)C)n3)nn2)nc(N)n1 [Compound 7e, Isopropyl 6-((4-(2-amino-6-(3-cyano-2-methylphenyl)pyrimidin-4-yl)-1H-1,2,3-triazol-1-yl)methyl)picolinate]

inhibition at 0.01 µM (human A2A AR [1]; [5]): 28.2 ± 8.79% | inhibition at 0.1 µM (human A2A AR [1]; [6]): 16.5 ± 1.9% | inhibition at 1 µM (human A2A AR [1]; [7]): 43.5 ± 0.77% | inhibition at 0.1 µM (human A2B AR; [8]): 3.51 ± 3.19% | melting point: 203 to 204 °C
SMILES: Cc1c(C#N)cccc1-c1cc(-c2cn(Cc3ccc4ccccc4n3)nn2)nc(N)n1 [Compound 7a, 3-(2-Amino-6–(1-(quinolin-2-ylmethyl)-1H-1,2,3-triazol-4-yl)pyrimidin-4-yl)-2-methylbenzonitrile]
